From patent US10695321B2, “Use of glycopyrrolate for treating tachycardia” (Heptares Therapeutics Limited, priority 2011, dated 2020)

Tested on: subjects with COPD
Assay: Phase IIa placebo-controlled crossover dose-ranging study, heart rate (vital signs) after single inhaled dose
Assay type: in vivo, human
Details: for Adjusted Mean for Average Change in Heart Rate from Test day Baseline: ANCOVA
Method: The study was a Phase IIa, multi-centre, randomised, double-blind, placebo-controlled, crossover, dose-ranging study using four dose levels of glycopyrronium bromide in subjects with COPD. A total of 40 subjects were required to complete the study.
Subjects were randomised to receive a single inhaled dose of 20, 125, 250 and 400 μg of glycopyrronium bromide in ascending order, with a placebo dose randomised into the sequence over 5 study visits. Subjects were randomised to receive treatment on Study Day 1 prior to dosing. All doses, including placebo, were administered using the Miat Monohaler.
The Treatment period then consisted of five study visits (separated by a 5-14-day wash-out period), during which subjects were dosed with a single inhaled dose of glycopyrronium bromide using a Miat Monohaler, in ascending order (20, 125, 250 or 400 μg). A placebo was randomly administered (using a Miat Monohaler) at one of the study visits; subsequent visits continued with the next highest dose of glycopyrronium bromide to that which was administered prior to the placebo.
All subjects were scheduled to be dosed between 08:00 and 10:00 am. For individual subjects, dosing was at the same time of day (±30 minutes). At each dosing visit, subjects received a single dose of glycopyrronium bromide or placebo administered via Miat Monohaler. Each different dose (20, 125, 250 or 400 μg) was contained in one capsule. An appropriate number of Miat Monohalers to conduct the study was also supplied to the site. A new Miat Monohaler was used to administer each dose at each visit.
copyrronium bromide was presented in size 3, white opaque, hard, gelatin capsules packaged in aluminium pouches. The capsules were presented in four dose strengths containing 20, 125, 250, or 400 μg glycopyrronium bromide. In addition to glycopyrronium bromide, excipient present in the capsule formulation consisted of the PowderHale^TM formulation of lactose and magnesium stearate.
All vital signs were measured on each study day, including heart rate (with the subject semi-supine for 5 minutes prior to measurement); blood pressure; respiratory rate and temperature were measured at each visit and before receiving study medication (pre-treatment), if applicable. Blood pressure and heart rate were also measured at 45, 90 minutes and 5, 10, 20 and 30 hours post-treatment on study days.
The statistical analyses were to be reported using summary tables and data listings. Statistical tests for the evaluation were to be performed at the 0.05 significance level using a two-sided test.
All analyses and tabulations were to be performed using SASS Version 6.12 on a PC platform. Continuous variables were to be summarised with sample size (n), mean, standard deviation (SD), minimum, median, and maximum. […] The mean was to have one extra decimal place and the standard deviation was to have two extra decimal places. Categorical variables were to be summarised with number and percentage of subjects.

[1] = 250 μg single inhaled dose, 90 mins post-dose
[2] = 250 μg single inhaled dose, 5 hrs post-dose
[3] = 250 μg single inhaled dose, 10 hrs post-dose
[4] = 250 μg single inhaled dose, 20 hrs post-dose
[5] = 250 μg single inhaled dose, 30 hrs post-dose
[6] = 250 μg single inhaled dose, pre-dose to 45 mins post-dose
[7] = 250 μg single inhaled dose, pre-dose to 90 mins post-dose
[8] = 250 μg single inhaled dose, pre-dose to 5 hours post-dose
[9] = 250 μg single inhaled dose, pre-dose to 10 hours post-dose
[10] = 250 μg single inhaled dose, pre-dose to 20 hours post-dose
[11] = 250 μg single inhaled dose, pre-dose to 30 hours post-dose
[12] = 400 μg single inhaled dose, 45 mins post-dose
[13] = 400 μg single inhaled dose, 90 mins post-dose
[14] = 400 μg single inhaled dose, 5 hrs post-dose
[15] = 400 μg single inhaled dose, 10 hrs post-dose
[16] = 400 μg single inhaled dose, 20 hrs post-dose
[17] = 400 μg single inhaled dose, 30 hrs post-dose
[18] = 400 μg single inhaled dose, pre-dose to 45 mins post-dose
[19] = 400 μg single inhaled dose, pre-dose to 90 mins post-dose
[20] = 400 μg single inhaled dose, pre-dose to 10 hours post-dose
[21] = 400 μg single inhaled dose, pre-dose to 30 hours post-dose

C[N+]1(C)CCC(OC(=O)C(O)(c2ccccc2)C2CCCC2)C1 (stereo not drawn) [glycopyrronium bromide]
Heart Rate Median (250 μg single inhaled dose, 45 mins post-dose): 64.0 bpm | Heart Rate Mean [1]: 68.2 bpm | Heart Rate Median [1]: 69.0 bpm | Heart Rate Mean [2]: 68.4 bpm | Heart Rate Median [2]: 68.5 bpm | Heart Rate Mean [3]: 66.3 bpm | Heart Rate Median [3]: 65.0 bpm | Heart Rate Mean [4]: 66.6 bpm | Heart Rate Median [4]: 65.0 bpm | Heart Rate Mean [5]: 70.7 bpm | Heart Rate Median [5]: 71.5 bpm | Heart Rate Change from Test day Baseline, Mean [6]: −4.6 bpm | Heart Rate Change from Test day Baseline, Median [6]: −4.5 bpm | Heart Rate Change from Test day Baseline, Mean [7]: −1.7 bpm | Heart Rate Change from Test day Baseline, Median [7]: −1.0 bpm | Heart Rate Change from Test day Baseline, Mean [8]: −1.4 bpm | Heart Rate Change from Test day Baseline, Median [8]: 0.0 bpm | Heart Rate Change from Test day Baseline, Mean [9]: −3.6 bpm | Heart Rate Change from Test day Baseline, Median [9]: −4.0 bpm | Heart Rate Change from Test day Baseline, Mean [10]: −3.4 bpm | Heart Rate Change from Test day Baseline, Median [10]: −4.0 bpm | Heart Rate Change from Test day Baseline, Mean [11]: 1.0 bpm | Heart Rate Change from Test day Baseline, Median [11]: 2.5 bpm | Adjusted Mean for Average Change in Heart Rate from Test day Baseline (250 μg, to 45 mins post-dose): −3.693 bpm | Dose v Placebo Difference, adjusted mean change in Heart Rate from Test day Baseline (250 μg, to 45 mins post-dose, p-value 0.324): −1.364 bpm | Adjusted Mean for Average Change in Heart Rate from Test day Baseline (250 μg, to 90 mins post-dose): −0.763 bpm | Dose v Placebo Difference, adjusted mean change in Heart Rate from Test day Baseline (250 μg, to 90 mins post-dose, p-value 0.203): −2.035 bpm | Adjusted Mean for Average Change in Heart Rate from Test day Baseline (250 μg, to 5 hours post-dose): −0.586 bpm | Dose v Placebo Difference, adjusted mean change in Heart Rate from Test day Baseline (250 μg, to 5 hours post-dose, p-value 0.072): −2.633 bpm | Adjusted Mean for Average Change in Heart Rate from Test day Baseline (250 μg, to 10 hours post-dose): −4.657 bpm | Dose v Placebo Difference, adjusted mean change in Heart Rate from Test day Baseline (250 μg, to 10 hours post-dose, p-value 0.078): −2.832 bpm | Adjusted Mean for Average Change in Heart Rate from Test day Baseline (250 μg, to 20 hours post-dose): −1.858 bpm | Dose v Placebo Difference, adjusted mean change in Heart Rate from Test day Baseline (250 μg, to 20 hours post-dose, p-value 0.773): −0.390 bpm | Adjusted Mean for Average Change in Heart Rate from Test day Baseline (250 μg, to 30 hours post-dose): 1.436 bpm | Dose v Placebo Difference, adjusted mean change in Heart Rate from Test day Baseline (250 μg, to 30 hours post-dose, p-value 0.581): 0.817 bpm | Statistical significance (p) of heart rate change relative to placebo (400 μg dose, 45 minute to 10 hour timepoints inclusive): < 0.05 | Heart Rate Mean [12]: 65.4 bpm | Heart Rate Median [12]: 65.0 bpm | Heart Rate Mean [13]: 67.1 bpm | Heart Rate Median [13]: 67.5 bpm | Heart Rate Mean [14]: 69.7 bpm | Heart Rate Median [14]: 69.0 bpm | Heart Rate Mean [15]: 65.7 bpm | Heart Rate Median [15]: 65.5 bpm | Heart Rate Mean [16]: 66.7 bpm | Heart Rate Median [16]: 66.0 bpm | Heart Rate Mean [17]: 70.9 bpm | Heart Rate Median [17]: 70.0 bpm | Heart Rate Change from Test day Baseline, Mean [18]: −7.4 bpm | Heart Rate Change from Test day Baseline, Median [18]: −6.5 bpm | Heart Rate Change from Test day Baseline, Mean [19]: −5.7 bpm | Heart Rate Change from Test day Baseline, Median [19]: −4.5 bpm | Heart Rate Change from Test day Baseline, Mean (400 μg single inhaled dose, pre-dose to 5 hours post-dose): −3.1 bpm | Heart Rate Change from Test day Baseline, Mean [20]: −6.4 bpm | Heart Rate Change from Test day Baseline, Median [20]: −5.5 bpm | Heart Rate Change from Test day Baseline, Mean (400 μg single inhaled dose, pre-dose to 20 hours post-dose): −5.6 bpm | Heart Rate Change from Test day Baseline, Mean [21]: −1.4 bpm | Heart Rate Change from Test day Baseline, Median [21]: 0.0 bpm | Adjusted Mean for Average Change in Heart Rate from Test day Baseline (400 μg, to 45 mins post-dose): −7.052 bpm | Dose v Placebo Difference, adjusted mean change in Heart Rate from Test day Baseline (400 μg, to 45 mins post-dose, p-value 0.005): −4.723 bpm | Adjusted Mean for Average Change in Heart Rate from Test day Baseline (400 μg, to 90 mins post-dose): −4.315 bpm | Dose v Placebo Difference, adjusted mean change in Heart Rate from Test day Baseline (400 μg, to 90 mins post-dose, p-value 0.004): −5.587 bpm | Adjusted Mean for Average Change in Heart Rate from Test day Baseline (400 μg, to 5 hours post-dose): −3.455 bpm | Dose v Placebo Difference, adjusted mean change in Heart Rate from Test day Baseline (400 μg, to 5 hours post-dose, p-value 0.002): −5.502 bpm | Adjusted Mean for Average Change in Heart Rate from Test day Baseline (400 μg, to 10 hours post-dose): −6.919 bpm | Dose v Placebo Difference, adjusted mean change in Heart Rate from Test day Baseline (400 μg, to 10 hours post-dose, p-value 0.008): −5.095 bpm | Adjusted Mean for Average Change in Heart Rate from Test day Baseline (400 μg, to 20 hours post-dose): −2.371 bpm | Dose v Placebo Difference, adjusted mean change in Heart Rate from Test day Baseline (400 μg, to 20 hours post-dose, p-value 0.583): −0.903 bpm | Adjusted Mean for Average Change in Heart Rate from Test day Baseline (400 μg, to 30 hours post-dose): 0.475 bpm | Dose v Placebo Difference, adjusted mean change in Heart Rate from Test day Baseline (400 μg, to 30 hours post-dose, p-value 0.935): −0.143 bpm | Mean heart rate from Test Day Baseline, dose relation (20-400 μg inhaled, up to 5 hours post-dose): dose dependent decrease | Subsequent tachycardic effect (any of the inhaled doses, up to 30 hours): not evident
